23 compounds from patent publication US6472416B1, “Sulfonylphenylpyrazole compounds useful as COX-2 inhibitors” (Abbott Laboratories, priority 1999, dated 2002) can be followed below.

What is called melting point is the temperature, or range, at which the solid turns liquid. With `CS(=O)(=O)c1ccc(-c2nn3c(c2-c2ccc(F)cc2)OCCC3)cc1` [Example 1, 3-(4-Fluorophenyl)-2-(4-(methylsulphonyl)phenyl)-6,7-dihydro-5H-pyrazolo[5,1-b][1,3]oxazine], the melting point was in the range of 198 to 200 °C.
With `CS(=O)(=O)c1ccc(-c2nn3c(c2-c2ccc(F)cc2)OCCCC3)cc1` [Example 2, 3-(4-Fluorophenyl)-2-(4-(methylsulphonyl)phenyl)-5,6,7,8-tetrahydropyrazolo[5,1-b][1,3]oxazepine] the figure was 167 to 168 °C.
The same measure for `CC(=O)C(C)Oc1nn(C(C)C(C)=O)c(-c2ccc(S(C)(=O)=O)cc2)c1-c1ccc(F)cc1` (centres unmarked) [Example 17, 3-[4-(4-Fluorophenyl)-5-(4-methylsulfonylphenyl)-3-(1-methyl-2-oxopropoxy)-1H-pyrazol-1-yl]butan-2-one]: 127 to 129 °C; for `CC(C)n1nc(OCC(=O)c2ccc(F)cc2)c(-c2ccc(F)cc2)c1-c1ccc(S(C)(=O)=O)cc1` [Example 19, 2-{[4-(4-Fluorophenyl)-5-(4-(methylsulphonyl)phenyl)-1-isopropyl-1H-pyrazol-3-yl]oxy}-1-(4-fluorophenyl)ethan-1-one]: 184 to 185 °C; for `CC(C)(C)C(=O)COc1nn(CC(=O)C(C)(C)C)c(-c2ccc(S(C)(=O)=O)cc2)c1-c1ccc(F)cc1` [Example 25, 1-[3-(3,3-Dimethyl-2-oxobutoxy)-4-(4-fluorophenyl)-5-(4-(methylsulphonyl)phenyl)-1H-pyrazol-1-yl]-3,3-dimethylbutan-2-one]: 180 to 182 °C.
`CC(C)(C)C(=O)COc1nn(CC#N)c(-c2ccc(S(C)(=O)=O)cc2)c1-c1ccc(F)cc1` [Example 28, 2-[3-(3,3-Dimethyl-2-oxobutoxy)-4-(4-fluorophenyl)-5-(4-(methylsulphonyl)phenyl)-1H-pyrazol-1-yl]acetonitrile]: the melting point was in the range of 156 to 159 °C.
The compound `CS(=O)(=O)c1ccc(-c2nn3c(-c4ccc(F)cc4)coc3c2-c2ccc(F)cc2)cc1` [Example 36B, 3,7-Bis(4-fluorophenyl)-6-(4-(methylsulphonyl)phenyl)pyrazolo[5,1-b][1,3]oxazole] had a melting point of 200 to 202 °C.
`CS(=O)(=O)c1ccc(-c2nn3c(-c4ccccc4)coc3c2-c2ccc(F)cc2)cc1` [Example 37, 7-(4-Fluorophenyl)-6-(4-(methylsulphonyl)phenyl)-3-phenylpyrazolo[5,1-b][1,3]oxazole] gave a melting point of 151 to 154 °C.
The same measure for `CS(=O)(=O)c1ccc(-c2nn3c(-c4ccccc4)c(-c4ccccc4)oc3c2-c2ccc(F)cc2)cc1` [Example 38, 7-(4-Fluorophenyl)-6-(4-(methylsulphonyl)phenyl)-2,3-diphenylpyrazolo[5,1-b][1,3]oxazole]: 228 to 229 °C.
With `CS(=O)(=O)c1ccc(-c2nn3c(C4C5CC6CC(C5)CC4C6)coc3c2-c2ccc(F)cc2)cc1` (centres unmarked) [Example 39, 3-(2-Adamantyl)-7-(4-fluorophenyl)-6-(4-(methylsulphonyl)phenyl)pyrazolo[5,1-b][1,3]oxazole] the figure was 128 to 131 °C.
`CC(C)(C)c1coc2c(-c3ccc(F)cc3)c(-c3ccc(S(C)(=O)=O)cc3)nn12` [Example 40, 3-(Tert-butyl)-7-(4-fluorophenyl)-6-(4-(methylsulphonyl)phenyl)pyrazolo[5,1-b][1,3]oxazole] registered a melting point of 181 to 182 °C.
With `Cc1oc2c(-c3ccc(F)cc3)c(-c3ccc(S(C)(=O)=O)cc3)nn2c1-c1ccccc1` [Example 41, 7-(4-Fluorophenyl)-2-methyl-6-(4-(methylsulphonyl)phenyl)-3-phenylpyrazolo[5,1-b][1,3]oxazole] the figure was 234 to 236 °C; with `CS(=O)(=O)c1ccc(-c2nn3c4c(oc3c2-c2ccc(F)cc2)CCCC4)cc1` [Example 42, 3-(4-Fluorophenyl)-2-(4-(methylsulphonyl)phenyl)-5,6,7,8-tetrahydropyrazolo[5,1-b][1,3]benzoxazole], 183 to 184 °C.
With `Cc1c(-c2ccc(F)cc2)oc2c(-c3ccc(F)cc3)c(-c3ccc(S(C)(=O)=O)cc3)nn12` [Example 43, 2,7-Bis(4-fluorophenyl)-3-methyl-6-(4-(methylsulphonyl)phenyl)pyrazolo[5,1-b][1,3]oxazole] the figure was 257 to 259 °C; with `Cc1oc2c(-c3ccc(F)cc3)c(-c3ccc(S(C)(=O)=O)cc3)nn2c1-c1cccs1` [Example 44, 7-(4-Fluorophenyl)-3-(2-thienyl)-2-methyl-6-(4-(methylsulphonyl)phenyl)pyrazolo[5,1-b][1,3]oxazole], 240 to 241 °C.
With `Cc1oc2c(-c3ccc(F)cc3)c(-c3ccc(S(C)(=O)=O)cc3)nn2c1-c1ccc(Cl)s1` [Example 45, 3-(5-Chloro-2-thienyl)-7-(4-fluorophenyl)-2-methyl-6-(4-(methylsulphonyl)phenyl)pyrazolo[5,1-b][1,3]oxazole] the figure was 222 to 223 °C; with `Cc1c(-c2cccc(C(F)(F)F)c2)oc2c(-c3ccc(F)cc3)c(-c3ccc(S(C)(=O)=O)cc3)nn12` [Example 46, 6-(4-(Methylsulphonyl)phenyl)-7-(4-fluorophenyl)-3-methyl-2-[3-(trifluoromethyl)phenyl]pyrazolo[5,1-b][1,3]oxazole], 194 to 195 °C; with `Cc1cc(-c2coc3c(-c4ccc(F)cc4)c(-c4ccc(S(C)(=O)=O)cc4)nn23)ccc1Cl` [Example 47, 3-(4-Chloro-3-methylphenyl)-7-(4-fluorophenyl)-6-(4-(methylsulphonyl)phenyl)pyrazolo[5,1-b][1,3]oxazole], 202 to 205 °C.
Consider `Cc1oc2c(-c3ccc(F)cc3)c(-c3ccc(S(C)(=O)=O)cc3)nn2c1C` [Example 48, 7-(4-Fluorophenyl)-6-(4-methylsulfonylphenyl)-2,3-dimethylpyrazolo[5,1-b][1,3]oxazole], for which the melting point lay in the range of 158 to 160 °C.
With `CS(=O)(=O)c1ccc(-c2nn3c(C(F)(F)F)coc3c2-c2ccc(F)cc2)cc1` [Example 50, 7-(4-Fluorophenyl)-6-(4-(methylsulphonyl)phenyl)-3-(trifluoromethyl)pyrazolo[5,1-b][1,3]oxazole] the figure was 186 to 189 °C; with `CCOC(=O)c1oc2c(-c3ccc(F)cc3)c(-c3ccc(S(C)(=O)=O)cc3)nn2c1C` [Example 51, Ethyl 7-(4-Fluorophenyl)-6-(4-methylsulfonylphenyl)-3-methylpyrazolo[5,1-b][1,3]oxazole-2-carboxylate], 203 to 204 °C; with `CS(=O)(=O)c1ccc(-c2nn3c4c(oc3c2-c2ccc(F)cc2)COCC4)cc1` [Example 52, 3-(4-Fluorophenyl)-2-(4-methylsulfonylphenyl)-7,8-dihydro-5H-pyrazolo[5,1-b]pyrano[4,3-d][1,3]oxazole], 200 to 201 °C.
With `CS(=O)(=O)c1ccc(-c2nn3c4c(oc3c2-c2ccc(F)cc2)CSCC4)cc1` [Example 53, 3-(4-Fluorophenyl)-2-(4-methylsulfonylphenyl)-7,8-dihydro-5H-pyrazolo[5,1-b]thiopyrano[4,3-d][1,3]oxazole] the figure was 178 to 180 °C.
